{"source": "patent US20220315895A1", "about": "“METHODS OF MAKING OLIGOPOTENT AND UNIPOTENT PRECURSORS” (Transfusion Health, LLC, priority 2019, published 2022)", "key": {"[1]": {"test_system": "CD34+ cells isolated from donor peripheral blood", "experiment": "Enhancement of HSCs derived from non-mobilized peripheral blood with compounds of Formula I (Example 33)", "format": "cell-based", "settings": "normalized fold change days 2 to 7", "method": "CD34+ cells were isolated from donor peripheral blood. Standard buffy coat separation using ficoll paque was performed. Cells were pelleted and incubated with unlabeled CD64 antibody. Cells then underwent negative depletion using biotinylated CD2, CD3, CD4, CD5, CD8, CD11b, CD14, CD16, CD19, CD20, CD45RA, CD56, CD235 (in some examples CD15, CD25 and other lineage specific antibodies may also be used). Cells which bind these antibodies are depleted using streptavidin beads. The enriched progenitor pool then undergoes cell sorting for CD34+.\nIsolated CD34+ cells were incubated in an in vitro culture media of Alpha MEM without phenol red with 10% (v/v) heat inactivated fetal bovine serum (FBS). When testing compounds of Formula I, two internal controls were used: a positive control (+SF conditions) and a baseline control (i.e. basic conditions (“cytokines only”)). The media components and concentrations used for the compounds tested are described in [0563] Table 2. The culture also included an antibiotic solution that includes penicillin, streptomycin, and amphotericin B to avoid contamination. Controls were included because the amount of expansion in samples obtained varies from individual to individual.\n(§1) Cultures were incubated at […] (controlled by nitrogen) and 5% CO2.\n(§2) Small molecule components were added separately and fresh each time the media needs to be refreshed. Cytokines can be stored together. Media renewal should occur at least every few days.\n(§3) On the days indicated one-half of the volume of the cell culture was removed for data analysis (flow cytometry using a BD FACS ARIA II). The culture volume was replenished with fresh media according to the conditions tested. The data reported accounts for the dilution factor introduced in this procedure.\nSeparate experiments were performed for each compound tested (Compound 1.001-1.023).\n(§4) Table 3, below, summarizes the relative expansive effect of Compound 1.001 to 1.023 (sample compounds) at the indicated concentration. The data in Table 3 is reported as the relative expansive effect. The relative expansive effect is a normalized value of the fold changes shown in each of FIG. 1-FIG. 23. It is calculated as shown below: […]"}, "[2]": {"test_system": "CD34+ cells from cord blood", "experiment": "Expansion of cord blood CD34+ cells, seven-day culture (Example 35)", "format": "cell-based, human", "settings": "normalized fold change days 1 to 7", "method": "CD34+ cells from cord blood were purchased from STEMCELL Technologies. Primary human CD34+ cells were isolated from cord blood samples using positive immunomagnetic separation techniques. Cells were thawed and gradually brought to room temperature. Samples were washed, then placed in overnight culture in StemSpan with 100 ng/ml each of FLT3L, TPO, SCF, and TL-6. Eighteen to twenty-four hours later (day 1), cells were counted and immunophenotyped (flow cytometry on an Invitrogen Attune N×T cytometer).\nApproximately 1000 live cells were plated into each well of 96-well plates; exact cell numbers dispensed per well were quantified with flow cytometry for later calculations.\nMedia for testing compounds of Formula I was prepared using Alpha MEM without phenol red, 10% (v/v) heat inactivated fetal bovine serum. Culture conditions also included an antibiotic solution that includes penicillin, streptomycin, and amphotericin B to avoid contamination. Additional media components and concentrations used for the compounds tested are described in Table 5.\nAll incubations for this experiment took place at 3% oxygen (controlled by nitrogen) and 5% CO2. Following seven days of culture, cells from wells were collected and phenotypes were analyzed (flow cytometry on an Invitrogen Attune N×T cytometer).\nas §4, with “6” for “3,”, “the screened compounds” for “Compound 1.001 to 1.023 (sample compounds)”, “6” for “3”, “the figures.” for “FIG. 1-FIG. 23.”"}, "[3]": {"test_system": "hematopoietic stem cells derived from cord blood", "experiment": "Enhancement of HSCs derived from cord blood with Compound 1.008 (Example 34)", "format": "cell-based", "settings": "ER50891 100 nM added to Compound 1.008 250 nM (+1.008/+ER conditions), compared with +1.008 alone", "method": "A frozen cord blood sample was thawed and gradually brought to room temperature. Thawed cord blood was incubated in an in vitro culture media of Alpha MEM without phenol red, 10% (v/v) heat inactivated fetal bovine serum (FBS). Four samples were tested: Base conditions, +SF Conditions, +1.008 Conditions, and +1.008/+ER conditions. The components included in each condition is described in [0574] Table 4. Each condition tested also included an antibiotic solution that includes penicillin, streptomycin, and amphotericin B to avoid contamination.\nas §1, §2\nas §3, with “varying amounts” for “one-half of the volume”, “II) and to avoid overcrowding of cells.” for “II).”"}}}
{"molecule": "CC(C)(C)C(=O)Nc1ccc2c(c1)/C(=N/O)c1ccccc1-2", "note": "[Compound 1.013, N-(9-(hydroxyimino)-9H-fluoren-2-yl)pivalamide]", "values": [{"measurement": "CD90 effect (relative expansive effect on CD34+/CD133+/CD90+ cells)", "setting": "[1]; sample compound 4 μM", "value": "+++ (0.55 ≤ x < 0.9)"}, {"measurement": "CD133 effect (relative expansive effect on CD34+/CD133+ cells)", "setting": "[1]; sample compound 4 μM", "value": "+++ (0.55 ≤ x < 0.9)"}, {"measurement": "CD90 effect (relative expansive effect on CD34+/CD133+/CD90+ cells)", "setting": "[2]; sample compound 2 μM", "value": "+++++ (2.52 ≤ x)"}, {"measurement": "CD133 effect (relative expansive effect on CD34+/CD133+ cells)", "setting": "[2]; sample compound 2 μM", "value": "++++ (2.16 ≤ x < 2.52)"}]}
{"molecule": "CC(C)(C)C(=O)Nc1cc2c(cc1O)-c1ccccc1C2=O", "note": "[Compound 1.014, N-(3-hydroxy-9-oxo-9H-fluoren-2-yl)pivalamide]", "values": [{"measurement": "CD90 effect (relative expansive effect on CD34+/CD133+/CD90+ cells)", "setting": "[1]; sample compound 8 μM", "value": "+++ (0.55 ≤ x < 0.9)"}, {"measurement": "CD133 effect (relative expansive effect on CD34+/CD133+ cells)", "setting": "[1]; sample compound 8 μM", "value": "++ (0.2 ≤ x < 0.55)"}, {"measurement": "CD90 effect (relative expansive effect on CD34+/CD133+/CD90+ cells)", "setting": "[2]; sample compound 8 μM", "value": "++ (1.44 ≤ x < 1.8)"}, {"measurement": "CD133 effect (relative expansive effect on CD34+/CD133+ cells)", "setting": "[2]; sample compound 8 μM", "value": "++ (1.44 ≤ x < 1.8)"}]}
{"molecule": "CC(C)(C)C(=O)Nc1ccc2c(c1)C(N)c1ccccc1-2", "note": "(stereo not shown) [Compound 1.015, N-(9-amino-9H-fluoren-2-yl)pivalamide]", "values": [{"measurement": "CD90 effect (relative expansive effect on CD34+/CD133+/CD90+ cells)", "setting": "[1]; sample compound 2 μM", "value": "++++ (0.9 ≤ x < 1.25)"}, {"measurement": "CD133 effect (relative expansive effect on CD34+/CD133+ cells)", "setting": "[1]; sample compound 2 μM", "value": "+++ (0.55 ≤ x < 0.9)"}, {"measurement": "CD90 effect (relative expansive effect on CD34+/CD133+/CD90+ cells)", "setting": "[2]; sample compound 0.5 μM", "value": "++ (1.44 ≤ x < 1.8)"}, {"measurement": "CD133 effect (relative expansive effect on CD34+/CD133+ cells)", "setting": "[2]; sample compound 0.5 μM", "value": "++ (1.44 ≤ x < 1.8)"}]}
{"molecule": "CC(C)(C)C(=O)Nc1ccc2c(c1)C(=O)c1ccc(O)cc1-2", "note": "[Compound 1.016, N-(6-hydroxy-9-oxo-9H-fluoren-2-yl)pivalamide]", "values": [{"measurement": "CD90 effect (relative expansive effect on CD34+/CD133+/CD90+ cells)", "setting": "[1]; sample compound 16 μM", "value": "++++ (0.9 ≤ x < 1.25)"}, {"measurement": "CD133 effect (relative expansive effect on CD34+/CD133+ cells)", "setting": "[1]; sample compound 16 μM", "value": "++ (0.2 ≤ x < 0.55)"}]}
{"molecule": "CNc1ccc2c(c1)C(O)c1ccccc1-2", "note": "(stereo not shown) [Compound 1.018, 2-(methylamino)-9H-fluoren-9-ol]", "values": [{"measurement": "CD90 effect (relative expansive effect on CD34+/CD133+/CD90+ cells)", "setting": "[1]; sample compound 4 μM", "value": "++ (0.2 ≤ x < 0.55)"}, {"measurement": "CD133 effect (relative expansive effect on CD34+/CD133+ cells)", "setting": "[1]; sample compound 4 μM", "value": "+ (x < 0.2)"}]}
{"molecule": "O=C1c2ccccc2-c2ccc(F)cc21", "note": "[Compound 1.020]", "values": [{"measurement": "CD90 effect (relative expansive effect on CD34+/CD133+/CD90+ cells)", "setting": "[1]; sample compound 16 μM", "value": "++ (0.2 ≤ x < 0.55)"}, {"measurement": "CD133 effect (relative expansive effect on CD34+/CD133+ cells)", "setting": "[1]; sample compound 16 μM", "value": "++ (0.2 ≤ x < 0.55)"}]}
{"molecule": "CCOC1c2ccccc2-c2ccc(NC(C)=O)cc21", "note": "(stereo not shown) [Compound 1.021, N-(9-ethoxy-9H-fluoren-2-yl)acetamide]", "values": [{"measurement": "CD90 effect (relative expansive effect on CD34+/CD133+/CD90+ cells)", "setting": "[1]; sample compound 8 μM", "value": "++ (0.2 ≤ x < 0.55)"}, {"measurement": "CD133 effect (relative expansive effect on CD34+/CD133+ cells)", "setting": "[1]; sample compound 8 μM", "value": "++ (0.2 ≤ x < 0.55)"}, {"measurement": "CD90 effect (relative expansive effect on CD34+/CD133+/CD90+ cells)", "setting": "[2]; sample compound 8 μM", "value": "+ (x < 1.44)"}, {"measurement": "CD133 effect (relative expansive effect on CD34+/CD133+ cells)", "setting": "[2]; sample compound 8 μM", "value": "+ (x < 1.44)"}]}
{"molecule": "CC(=O)Nc1ccc2c(c1)C(OC(C)=O)c1ccccc1-2", "note": "(stereo not shown) [Compound 1.022, 2-acetamido-9H-fluoren-9-yl acetate]", "values": [{"measurement": "CD90 effect (relative expansive effect on CD34+/CD133+/CD90+ cells)", "setting": "[1]; sample compound 32 μM", "value": "+++++ (1.25 ≤ x)"}, {"measurement": "CD133 effect (relative expansive effect on CD34+/CD133+ cells)", "setting": "[1]; sample compound 32 μM", "value": "+++ (0.55 ≤ x < 0.9)"}, {"measurement": "CD90 effect (relative expansive effect on CD34+/CD133+/CD90+ cells)", "setting": "[2]; sample compound 8 μM", "value": "++ (1.44 ≤ x < 1.8)"}, {"measurement": "CD133 effect (relative expansive effect on CD34+/CD133+ cells)", "setting": "[2]; sample compound 8 μM", "value": "+++ (1.8 ≤ x < 2.16)"}]}
{"molecule": "CCOC1c2ccccc2-c2ccc(NC(=O)C(C)(C)C)cc21", "note": "(stereo not shown) [Compound 1.023, N-(9-ethoxy-9H-fluoren-2-yl)pivalamide]", "values": [{"measurement": "CD90 effect (relative expansive effect on CD34+/CD133+/CD90+ cells)", "setting": "[1]; sample compound 32 μM", "value": "++ (0.2 ≤ x < 0.55)"}, {"measurement": "CD133 effect (relative expansive effect on CD34+/CD133+ cells)", "setting": "[1]; sample compound 32 μM", "value": "+ (x < 0.2)"}, {"measurement": "CD90 effect (relative expansive effect on CD34+/CD133+/CD90+ cells)", "setting": "[2]; sample compound 8 μM", "value": "++ (1.44 ≤ x < 1.8)"}, {"measurement": "CD133 effect (relative expansive effect on CD34+/CD133+ cells)", "setting": "[2]; sample compound 8 μM", "value": "++ (1.44 ≤ x < 1.8)"}]}
{"molecule": "ER50891 [reference compound]", "values": [{"measurement": "fold increase levels of HSC populations on addition of ER50891", "setting": "[3]", "value": "even further improved"}]}
